“Also recorded” adds a separate entry of the source.
Legend:
14-3-3/ERα complex [1] = molecular target: 14-3-3/ERα complex (Homo sapiens, UniProt P03372+P31947); assay: FA 14-3-3 titration to ERα peptide with compound, with or without VCB (14-3-3/ERα stabilization); type: binding; details: for stabilization of the 14-3-3/ERα interaction / stabilization of the 14-3-3/ERα complex with VCB, VCB recruitment: 1 µM compound; for stabilization of the 14-3-3/ERα interaction: without VCB; for stabilization of the 14-3-3/ERα complex with VCB, VCB recruitment: 5 µM VCB
[2] = molecular target: His-tagged VCB complex / biotinylated 14-3-3γ / ERα peptide (Homo sapiens, UniProt P03372+P40337+P61981); assay: TR-FRET assay of VCB recruitment to 14-3-3γ with ERα peptide; type: binding; details: 20 µM ERα peptide, 50 nM His-VCB, 50 nM biotinylated 14-3-3γ
[3] = molecular target: 14-3-3ζ/ERα(LBD_F) complex with CRL2^VHL (Homo sapiens, UniProt P03372+P40337+P63104, F591R/P592R/S305A); assay: In vitro ubiquitination assay (SDS-PAGE, western blot, Alexa Fluor 488 ubiquitin); type: biochemical; details: for ubiquitination of the 14-3-3ζ/ERα(LBD_F) complex: Coomassie SDS–PAGE, quantified at 15 min
Method: Briefly, the 14-3-3ζ/ERα^(LBD_F) complex was incubated with recombinantly expressed and purified UBE1, UBE2D2, UBE2R1, CRL2^VHL and ubiquitin in the presence of ^MGPROTACs and analysed time-dependently using Coomassie-stained SDS–PAGE (Fig. 6a). Ubiquitin conjugation was rapid with higher molecular weight species evident within 5 min (Supplementary Fig. 21) and were quantified at 15 min by Coomassie-stained SDS–PAGE (Fig. 6b, c and Supplementary Fig. 22).
UBE2D2 was selected as a representative of the promiscuous UBE2D family which is known to work with Cullin RING E3 ligases such as CRL2^VHL[48]–[52]. The UBE2R family is known to be more apt at extending polyubiquitin chains[49]–[51], however recent studies have shown that UBE2R1 and UBE2R2 are also capable of installing the first ubiquitin on degrader-targeted substrates with CRL2^VHL[53],[54].
The reaction was quenched with reducing SDS sample buffer. The protein species were resolved by SDS-PAGE on a 10% bis-tris NuPAGE gel using MOPS running buffer, run at 175 V for 50 min. […] Proteins were transferred to a nitrocellulose membrane either by wet transfer at 90 V for 90 min, or using an iBlot 2 Gel Transfer Device (Invitrogen). […] For an example of presentation of the full scan blots, see Supplementary Fig. S23 or the Source Data file.

NanoLuc–VHL [4] = molecular target: T1, NanoLuc–VHL (Homo sapiens, UniProt P40337); assay: cell-based; details: IC50, VHL probe displacement (BRET), live (non-permeabilized) MCF-7 cells, 4 h
14-3-3/ERα complex [5] = assay: 14-3-3 immunoprecipitation–mass spectrometry (IP–MS) in MCF-7 cells; details: MCF-7, 10 μM CV2a, 24 h; not statistically significant (p > 0.05)
NanoLuc–VHL [6] = molecular target: T1, NanoLuc–VHL; details: MCF-7 cells, in-cell VHL target engagement
14-3-3σ/ERα complex [7] = molecular target: T2, 14-3-3σ/ERα complex (Homo sapiens, UniProt P03372+P31947); assay: FA compound titration to 14-3-3σ/ERα phosphopeptide complex; type: binding; details: 1 µM 14-3-3σ and 10 nM ERα peptide
14-3-3σ/ERα complex [8] = molecular target: T2, 14-3-3σ/ERα complex; details: previously reported; read-out: EC50, binding to the 14-3-3σ/ERα complex; cited from earlier work

## COCC1CCC2C1=CC1(C)C(=C(C(C)CNC(C)=O)CC1O)C(OC1OC(CO)C(O)C(O)C1O)C(O)C2C (stereo not drawn)
14-3-3/ERα complex [1]
  stabilization of the 14-3-3/ERα interaction: stabilizes the 14-3-3/ERα interaction

## C=CC(C)(C)OCC1OC(OC2C3=C(C(C)CNC(=O)CCCCCCCCCCCC(=O)NC(C(=O)N4CC(O)CC4C(=O)NCc4ccc(-c5scnc5C)cc4)C(C)(C)C)CC(O)C3(C)C=C3C(COC)CCC3C(C)C2O)C(O)C(O)C1O (stereo not drawn) [(S-OH)-CV2a]
[2]
  VCB recruitment to 14-3-3, TR-FRET signal: no TR-FRET signal
[3]
  ubiquitination of the 14-3-3ζ/ERα(LBD_F) complex: completely abrogated ubiquitination
14-3-3/ERα complex [1]
  stabilization of the 14-3-3/ERα complex with VCB, VCB recruitment: failed to recruit VCB
  stabilization of the 14-3-3/ERα interaction: stabilized the 14-3-3/ERα complex similarly to CV2a

## C=CC(C)(C)OCC1OC(OC2C3=C(C(C)CNC(=O)CCC(=O)NC(C(=O)N4CC(O)CC4C(=O)NCc4ccc(-c5scnc5C)cc4)C(C)(C)C)CC(O)C3(C)C=C3C(COC)CCC3C(C)C2O)C(O)C(O)C1O (stereo not drawn) [CV0a]
14-3-3/ERα complex [1]
  stabilization of the 14-3-3/ERα complex with VCB, VCB recruitment: negatively cooperative
NanoLuc–VHL [4]
  IC50: > 10000 nM

## C=CC(C)(C)OCC1OC(OC2C3=C(C(C)CNC(=O)CCCCCCCCCCCC(=O)NC(C(=O)N4CC(O)CC4C(=O)NCc4ccc(-c5scnc5C)cc4)C(C)(C)C)CC(O)C3(C)C=C3C(COC)CCC3C(C)C2O)C(O)C(O)C1O (stereo not drawn) [CV2a]
[2]
  VCB recruitment to 14-3-3, TR-FRET signal: unable to recruit VHL in the absence of ERα peptide; also recorded: extended recruitment window
14-3-3/ERα complex [5]
  ERα enrichment in the 14-3-3 pull-down: ~ 2.5 fold
[3]
  ubiquitination of the 14-3-3ζ/ERα(LBD_F) complex: robust polyubiquitination
14-3-3/ERα complex [1]; CV2a titration in the absence of VCB
  enhancement of ERα binding to 14-3-3, two-dimensional FA titration: up to 2.5 fold
14-3-3/ERα complex [1]; high CV2a and VCB concentrations
  enhancement of ERα binding to 14-3-3, two-dimensional FA titration: over 23 fold
NanoLuc–VHL [6]
  cell permeability: cell-permeable

## C=CC(C)(C)OCC1OC(OC2C3=C(C(C)CNC(=O)CCOCCOCCOCCC(=O)NC(C(=O)N4CC(O)CC4C(=O)NCc4ccc(-c5scnc5C)cc4)C(C)(C)C)CC(O)C3(C)C=C3C(COC)CCC3C(C)C2O)C(O)C(O)C1O (stereo not drawn) [CV2p]
14-3-3σ/ERα complex [7]
  binding to the 14-3-3/ERα complex: highest apparent potency
[3]
  ubiquitination of the 14-3-3ζ/ERα(LBD_F) complex: robust polyubiquitination
[3]; UBE2D2 vs UBE2R1
  E2 requirement of ubiquitination: observed only with UBE2D2
[3]; up to 24 h
  ubiquitination of assembled complex vs apo-14-3-3: preferential ubiquitination of the assembled 14-3-3ζ/ERα^(LBD_F) complex over apo-14-3-3

## C=CC(C)(C)OCC1OC(OC2C3=C(C(C)CNC(=O)CCCCCCCCCCCCCCCCCC(=O)NC(C(=O)N4CC(O)CC4C(=O)NCc4ccc(-c5scnc5C)cc4)C(C)(C)C)CC(O)C3(C)C=C3C(COC)CCC3C(C)C2O)C(O)C(O)C1O (stereo not drawn) [CV3a]
[2]
  VCB recruitment to 14-3-3, TR-FRET signal: markedly reduced recruitment
[3]
  ubiquitination of the 14-3-3ζ/ERα(LBD_F) complex: robust polyubiquitination

## C=CC(C)(C)OC[C@H]1O[C@H](O[C@@H]2C3=C([C@H](C)CNC(C)=O)C[C@H](O)[C@]3(C)/C=C3/[C@@H](COC)CC[C@H]3[C@@H](C)[C@H]2O)[C@H](O)[C@@H](O)[C@@H]1O [FC-NAc, 3′-deacetylated fusicoccin N-acetyl]
14-3-3σ/ERα complex [8]
  EC50: 15 nM

## CC(=O)N[C@H](C(=O)N1C[C@H](O)C[C@H]1C(=O)NCc1ccc(-c2scnc2C)cc1)C(C)(C)C [VH032, reference compound]
14-3-3σ/ERα complex [7]
  binding to the 14-3-3/ERα complex: did not engage the 14-3-3/ERα complex
